Measured values reported in the NIST ThermoML archive (doi:10.1016/j.jct.2012.01.023).
Numbers after ± are expanded uncertainties.

Assays:
[1] = xn = mol fraction of the nth substance listed; settings: 298.15 K, Drop volume
[2] = for surface tension liquid-gas: 298.15 K, Drop volume

## CCCCCCCCOS(=O)(=O)[O-].CCn1cc[n+](C)c1 [1-ethyl-3-methylimidazolium octyl sulfate] + CCO
[1]; x1 = 0.0399
  surface tension liquid-gas: 22.89 ± 0.25 mN/m
[1]; x1 = 0.0712
  surface tension liquid-gas: 23.71 ± 0.25 mN/m
[1]; x1 = 0.098
  surface tension liquid-gas: 24.48 ± 0.25 mN/m
[1]; x1 = 0.1595
  surface tension liquid-gas: 25.82 ± 0.26 mN/m
[1]; x1 = 0.215
  surface tension liquid-gas: 26.62 ± 0.27 mN/m
[1]; x1 = 0.2445
  surface tension liquid-gas: 27.01 ± 0.27 mN/m
[1]; x1 = 0.2985
  surface tension liquid-gas: 27.64 ± 0.28 mN/m
[1]; x1 = 0.3506
  surface tension liquid-gas: 28.18 ± 0.28 mN/m
[1]; x1 = 0.4002
  surface tension liquid-gas: 28.61 ± 0.29 mN/m
[1]; x1 = 0.4582
  surface tension liquid-gas: 28.92 ± 0.3 mN/m
[1]; x1 = 0.5059
  surface tension liquid-gas: 29.14 ± 0.31 mN/m
[1]; x1 = 0.6269
  surface tension liquid-gas: 29.6 ± 0.33 mN/m
[1]; x1 = 0.7387
  surface tension liquid-gas: 29.96 ± 0.35 mN/m
[1]; x1 = 0.8317
  surface tension liquid-gas: 30.5 ± 0.36 mN/m
[1]; x1 = 0.9164
  surface tension liquid-gas: 30.8 ± 0.38 mN/m
[1]; x1 = 0.9432
  surface tension liquid-gas: 30.79 ± 0.39 mN/m
[1]; x1 = 0.953
  surface tension liquid-gas: 30.82 ± 0.39 mN/m
[1]; x1 = 1
  surface tension liquid-gas: 30.91 ± 0.4 mN/m

## CCO [ethanol]
[2]
  surface tension liquid-gas: 22.01 ± 0.24 mN/m

## CCOS(=O)(=O)[O-].CCn1cc[n+](C)c1 [1-ethyl-3-methylimidazolium ethyl sulfate] + CCO
[1]; x1 = 0.0988
  surface tension liquid-gas: 24.18 ± 0.25 mN/m
[1]; x1 = 0.2056
  surface tension liquid-gas: 26.37 ± 0.25 mN/m
[1]; x1 = 0.3025
  surface tension liquid-gas: 28.52 ± 0.26 mN/m
[1]; x1 = 0.3989
  surface tension liquid-gas: 30.68 ± 0.27 mN/m
[1]; x1 = 0.4999
  surface tension liquid-gas: 32.99 ± 0.28 mN/m
[1]; x1 = 0.5984
  surface tension liquid-gas: 35.4 ± 0.29 mN/m
[1]; x1 = 0.703
  surface tension liquid-gas: 38.12 ± 0.31 mN/m
[1]; x1 = 0.8252
  surface tension liquid-gas: 41.48 ± 0.33 mN/m
[1]; x1 = 0.9048
  surface tension liquid-gas: 43.81 ± 0.34 mN/m
[1]; x1 = 1
  surface tension liquid-gas: 47.16 ± 0.36 mN/m

## CCCCCCOS(=O)(=O)[O-].CC[n+]1ccn(C)c1 [3-ethyl-1-methyl-1H-imidazolium hexyl sulfate]
[2]; 298.1 K, 101.33 kPa, Liquid, Vibrating tube method
  mass density: 1129.6 ± 1.4 kg/m3
[2]
  surface tension liquid-gas: 34.77 ± 0.43 mN/m

## O [water]
[2]
  surface tension liquid-gas: 71.35 ± 0.33 mN/m

## CCCCCCOS(=O)(=O)[O-].CC[n+]1ccn(C)c1 [3-ethyl-1-methyl-1H-imidazolium hexyl sulfate] + CCO
[1]; x1 = 0.03
  surface tension liquid-gas: 22.98 ± 0.25 mN/m
[1]; x1 = 0.0679
  surface tension liquid-gas: 23.87 ± 0.25 mN/m
[1]; x1 = 0.0977
  surface tension liquid-gas: 24.48 ± 0.25 mN/m
[1]; x1 = 0.1253
  surface tension liquid-gas: 25 ± 0.25 mN/m
[1]; x1 = 0.2267
  surface tension liquid-gas: 26.53 ± 0.27 mN/m
[1]; x1 = 0.3138
  surface tension liquid-gas: 27.69 ± 0.28 mN/m
[1]; x1 = 0.386
  surface tension liquid-gas: 28.6 ± 0.29 mN/m
[1]; x1 = 0.4691
  surface tension liquid-gas: 29.48 ± 0.3 mN/m
[1]; x1 = 0.5946
  surface tension liquid-gas: 30.86 ± 0.33 mN/m
[1]; x1 = 0.7189
  surface tension liquid-gas: 32.08 ± 0.36 mN/m
[1]; x1 = 0.7951
  surface tension liquid-gas: 32.84 ± 0.37 mN/m
[1]; x1 = 0.9409
  surface tension liquid-gas: 34.31 ± 0.41 mN/m
[1]; x1 = 1
  surface tension liquid-gas: 34.77 ± 0.43 mN/m

## CCOS(=O)(=O)[O-].CCn1cc[n+](C)c1 [1-ethyl-3-methylimidazolium ethyl sulfate] + O
[1]; x1 = 0.005
  surface tension liquid-gas: 67.23 ± 0.33 mN/m
[1]; x1 = 0.0199
  surface tension liquid-gas: 62.42 ± 0.31 mN/m
[1]; x1 = 0.0402
  surface tension liquid-gas: 59.68 ± 0.31 mN/m
[1]; x1 = 0.06
  surface tension liquid-gas: 57.64 ± 0.3 mN/m
[1]; x1 = 0.1006
  surface tension liquid-gas: 55.64 ± 0.3 mN/m
[1]; x1 = 0.202
  surface tension liquid-gas: 52.23 ± 0.3 mN/m
[1]; x1 = 0.3017
  surface tension liquid-gas: 50.45 ± 0.3 mN/m
[1]; x1 = 0.4046
  surface tension liquid-gas: 49.42 ± 0.31 mN/m
[1]; x1 = 0.5026
  surface tension liquid-gas: 48.79 ± 0.31 mN/m
[1]; x1 = 0.6066
  surface tension liquid-gas: 48.3 ± 0.32 mN/m
[1]; x1 = 0.6957
  surface tension liquid-gas: 47.94 ± 0.33 mN/m
[1]; x1 = 0.7939
  surface tension liquid-gas: 47.72 ± 0.34 mN/m
[1]; x1 = 0.9041
  surface tension liquid-gas: 47.39 ± 0.35 mN/m
[1]; x1 = 1
  surface tension liquid-gas: 47.16 ± 0.36 mN/m
